Source: PMC5306265 (Investigational New Drugs, 2016)
Where two headings read alike, the source gives them in different places.

Legend:
[1] = once-daily oral dosing, mouse xenograft models; cited from earlier work
[2] = system: pERK levels in CD3-positive lymphocytes; test: Inhibition of ERK phosphorylation in peripheral blood mononuclear cells (ex vivo stimulation assay, flow cytometry); parameters: species or system human; conditions: for Emax: Homo sapiens, Lymphocyte
Protocol: The extent of ERK phosphorylation in peripheral blood mononuclear cells was determined using an ex vivo stimulation assay; pERK levels in CD3-positive lymphocytes were measured by flow cytometry assessing mean fluorescence (MEFL) under phorbol myristate acetate (PMA)-stimulated and unstimulated conditions. Mean percent change from baseline in blood pERK level over time was determined following single and multiple doses of TAK-733. Noncompartmental analyses, using WinNonlin version 6.1 or higher (Pharsight, Cary, NC), in pharmacodynamic-evaluable patients were used to determine the following pharmacodynamic parameters for inhibition of ERK phosphorylation: maximum observed effect (Emax), time to Emax (TEmax), area under the effect (inhibition)–time curve over the dosing interval (AUEC(0-τ)), and average effect over the dosing interval (Eav).

[3] = MTD of 16 mg, day 21 of cycle 1, stated as inhibition

Compound: Cn1c(=O)c(F)c(Nc2ccc(I)cc2F)c2c(=O)n(C[C@@H](O)CO)cnc21 [TAK-733]
- time after dosing at which plasma concentrations decrease rapidly [1]: 8 to 16 h
- AUEC(0-τ) Mean (SD) ([2]; 0.8 mg, day 1): –450 (60) h*%
- Eav Mean (SD) ([2]; 0.8 mg, day 1): –19.3 (2.0) %
- TEmax Median (range) ([2]; 0.8 mg, day 1): 3.0 (2–4) h
- TEmax Median (range) ([2]; 0.8 mg, day 21): 3.0 (2–4) h
- AUEC(0-τ) Mean (SD) ([2]; 1.6 mg, day 1): –1175 (134) h*%
- Eav Mean (SD) ([2]; 1.6 mg, day 1): –47 (8.2) %
- TEmax Median (range) ([2]; 1.6 mg, day 1): 4.0 (4–4) h
- AUEC(0-τ) Mean (SD) ([2]; 1.6 mg, day 21): –1020 h*%
- Eav Mean (SD) ([2]; 1.6 mg, day 21): –42.2%
- AUEC(0-τ) Mean (SD) ([2]; 3.2 mg, day 1): –643 (405) h*%
- Eav Mean (SD) ([2]; 3.2 mg, day 1): –26.9 (16.9) %
- TEmax Median (range) ([2]; 3.2 mg, day 1): 1.1 (1–4) h
- AUEC(0-τ) Mean (SD) ([2]; 3.2 mg, day 21): –785 h*%
- Eav Mean (SD) ([2]; 3.2 mg, day 21): –31.6%
- AUEC(0-τ) Mean (SD) ([2]; 4.4 mg, day 1): –542 (492) h*%
- Eav Mean (SD) ([2]; 4.4 mg, day 1): –22.5 (20.5) %
- TEmax Median (range) ([2]; 4.4 mg, day 1): 1.5 (1–2) h
- AUEC(0-τ) Mean (SD) ([2]; 4.4 mg, day 21): –164 (447) h*%
- Eav Mean (SD) ([2]; 4.4 mg, day 21): –6.4 (18.3) %
- TEmax Median (range) ([2]; 4.4 mg, day 21): 2.0 (2–4) h
- AUEC(0-τ) Mean (SD) ([2]; 6 mg, day 1): –397 (458) h*%
- Eav Mean (SD) ([2]; 6 mg, day 1): –16.5 (18.9) %
- TEmax Median (range) ([2]; 6 mg, day 1): 4.0 (1–4) h
- AUEC(0-τ) Mean (SD) ([2]; 6 mg, day 21): 29 (464) h*%
- Eav Mean (SD) ([2]; 6 mg, day 21): 0.7 (18.7) %
- AUEC(0-τ) Mean (SD) ([2]; 8.4 mg, day 1): –981 (624) h*%
- Eav Mean (SD) ([2]; 8.4 mg, day 1): –41.6 (26.5) %
- TEmax Median (range) ([2]; 8.4 mg, day 1): 3.0 (1–8) h
- AUEC(0-τ) Mean (SD) ([2]; 8.4 mg, day 21): –937 (811) h*%
- Eav Mean (SD) ([2]; 8.4 mg, day 21): –39.7 (34.2) %
- TEmax Median (range) ([2]; 8.4 mg, day 21): 2.1 (1–4) h
- AUEC(0-τ) Mean (SD) ([2]; 11.8 mg, day 1): –971 (241) h*%
- Eav Mean (SD) ([2]; 11.8 mg, day 1): –40.5 (10.0) %
- TEmax Median (range) ([2]; 11.8 mg, day 1): 4.1 (4–8) h
- AUEC(0-τ) Mean (SD) ([2]; 11.8 mg, day 21): –1900 h*%
- Eav Mean (SD) ([2]; 11.8 mg, day 21): –78.1%
- TEmax Median (range) ([2]; 11.8 mg, day 21): 2.2 (2.1–2.3) h
- AUEC(0-τ) Mean (SD) ([2]; 16 mg, day 1): –948 (624) h*%
- Eav Mean (SD) ([2]; 16 mg, day 1): –40.1 (26.3) %
- TEmax Median (range) ([2]; 16 mg, day 1): 4.0 (2–8) h
- AUEC(0-τ) Mean (SD) ([2]; 16 mg, day 21): –1947 (125) h*%
- Eav Mean (SD) ([2]; 16 mg, day 21): –82.4 (5.5) %
- TEmax Median (range) ([2]; 16 mg, day 21): 4.6 (4–24) h
- AUEC(0-τ) Mean (SD) ([2]; 22 mg, day 1): –1517 (257) h*%
- Eav Mean (SD) ([2]; 22 mg, day 1): –64.5 (11.3) %
- TEmax Median (range) ([2]; 22 mg, day 1): 7.6 (1–8) h
- AUEC(0-τ) Mean (SD) ([2]; 22 mg, day 21): –1615 (288) h*%
- Eav Mean (SD) ([2]; 22 mg, day 21): –66.7 (11.7) %
- TEmax Median (range) ([2]; 22 mg, day 21): 3.1 (1–8) h
- Emax ([2]; 24 h, 0.8 mg, day 1, % change from baseline in pERK, read-out: Emax Mean (SD)): -40.5%
- Emax ([2]; 24 h, 1.6 mg, day 1, % change from baseline in pERK, read-out: Emax Mean (SD)): -61.3%
- Emax ([2]; 24 h, 3.2 mg, day 1, % change from baseline in pERK, read-out: Emax Mean (SD)): -41.2%
- Emax ([2]; 24 h, 4.4 mg, day 1, % change from baseline in pERK, read-out: Emax Mean (SD)): -49.2%
- Emax ([2]; 24 h, 6 mg, day 1, % change from baseline in pERK, read-out: Emax Mean (SD)): -59.8%
- Emax ([2]; 24 h, 8.4 mg, day 1, % change from baseline in pERK, read-out: Emax Mean (SD)): -64.5%
- Emax ([2]; 24 h, 11.8 mg, day 1, % change from baseline in pERK, read-out: Emax Mean (SD)): -61.3%
- Emax ([2]; 24 h, 16 mg, day 1, % change from baseline in pERK, read-out: Emax Mean (SD)): -77.3%
- Emax ([2]; 24 h, 22 mg, day 1, % change from baseline in pERK, read-out: Emax Mean (SD)): -84.1%
- Emax ([2]; 504 h, 0.8 mg, day 21, % change from baseline in pERK, read-out: Emax Mean (SD)): -39.2%
- Emax ([2]; 504 h, 1.6 mg, day 21, % change from baseline in pERK, read-out: Emax Mean (SD)): -43%
- Emax ([2]; 504 h, 3.2 mg, day 21, % change from baseline in pERK, read-out: Emax Mean (SD)): -66.8%
- Emax ([2]; 504 h, 4.4 mg, day 21, % change from baseline in pERK, read-out: Emax Mean (SD)): -28%
- Emax ([2]; 504 h, 6 mg, day 21, % change from baseline in pERK, read-out: Emax Mean (SD)): -64%
- Emax ([2]; 504 h, 8.4 mg, day 21, % change from baseline in pERK, read-out: Emax Mean (SD)): -63.8%
- Emax ([2]; 504 h, 11.8 mg, day 21, % change from baseline in pERK, read-out: Emax Mean (SD)): -79.3%
- Emax ([2]; 504 h, 16 mg, day 21, % change from baseline in pERK, read-out: Emax Mean (SD)): -84.7%
- Emax ([2]; 504 h, 22 mg, day 21, % change from baseline in pERK, read-out: Emax Mean (SD)): -82.9%
- Emax ([2]; 504 h, MTD of 16 mg, day 21 of cycle 1, stated as inhibition, read-out: mean Emax): 85%
- Emax ([2]; 504 h, day 21, doses of 8.4 mg and above, read-out: maximum decrease in pERK (Emax)): 46 to 97%
- mean AUEC(0-τ) [2, 3]: 1947 h* %
- mean Eav [2, 3]: 82%
- duration of pERK decreases ([2]; day 21 of cycle 1, doses of less than 8.4 mg): relatively transient
- duration of target inhibition ([2]; day 21 of cycle 1, higher doses (8.4 mg and above)): > 4 h
- On-study death (N = 51): 5 (10) n (%)
- Rash pustular (drug-related grade ≥ 3 AE, N = 51): 1 (2) n (%)
- on-study deaths related to TAK-733 (five on-study deaths): None of the deaths were considered related to TAK-733
- AE resulting in study drug discontinuation (human, in vivo): 7 (14) n (%)
- AST increased (human, in vivo): 7 (14) n (%)
- Any drug-related AE (human, in vivo): 45 (88) n (%)
- Decreased appetite (human, in vivo): 10 (20) n (%)
- Dry skin (human, in vivo): 5 (10) n (%)
- Hypophosphatemia (human, in vivo): 1 (2) n (%)
- Increased AST (human, in vivo): 13 (25) n (%)
- Increased CPK (human, in vivo): 10 (20) n (%)
- Neuropathy peripheral (human, in vivo): 1 (2) n (%)
- Pain in extremity (human, in vivo): 1 (2) n (%)
- Pulmonary embolism (human, in vivo): 1 (2) n (%)
- SAE: anemia (human, in vivo): 2 n
- SAE: progression of metastatic melanoma (human, in vivo): 3 n
- SAE: pulmonary embolism (human, in vivo): 2 n
- abnormal sensation in eye (human, in vivo): 1 n
- blurred vision (human, in vivo): 2 n
- patients with any rash AEs (human, in vivo): 34 (67 %) patients (%)
- patients with erythematous rash (human, in vivo): 1 (2 %) patients (%)
- patients with exfoliative rash (human, in vivo): 1 (2 %) patients (%)
- patients with macular rash (human, in vivo): 2 (4 %) patients (%)
- patients with maculo-papular rash (human, in vivo): 2 (4 %) patients (%)
- patients with ophthalmic AEs (eye disorders system organ class) (human, in vivo): 7 (14 %) patients (%)
- patients with papular rash (human, in vivo): 2 (4 %) patients (%)
- patients with pruritic rash (human, in vivo): 1 (2 %) patients (%)
- patients with rash (human, in vivo): 3 (6 %) patients (%)
- periorbital edema (human, in vivo): 1 n
- photophobia (human, in vivo): 1 n
- photopsia (human, in vivo): 2 n
- retinal edema (human, in vivo): 1 n
- visual impairment (human, in vivo): 3 n
- cutaneous squamous cell carcinomas (in vivo): No cutaneous squamous cell carcinomas were seen
- retinopathies (in vivo): absence of retinopathies
- patients with pustular rash (overall, N = 51): 1 (2 %) patients (%)
